Laboratory results taken from US9315492B2, “Heterocyclic group contained amino-methanol derivative, and salt, synthetic method and use thereof” (BEIJING FORELAND BIOPHARMA CO., LTD., priority 2012, dated 2016).

How the values were obtained:
S1P1 [1] = molecular target: T1, S1P1 (Homo sapiens (Human), UniProt P21453); assay: S1P1 GTPγS binding assay; type: biochemical; details: [35S]-GTPγS, membranes with high-expressed S1P1 (CHO-S1P1)
Experimental: 1. S1P1GTPγS Binding Assay
2) T-75 cell culture plate; 150 mm cell culture dish
3) DMEM cell culture fluid; 10% (v/v) fetal bovine serum; 100 U/ml penicillin-100 μg/ml streptomycin; 2 mM […], 1 mg/ml G-418
4) Cell Lysis Buffer: HEPES 20 mM (pH 7.4), EDTA 10 mM
5) Stock solution: HEPES 20 mM, EDTA 0.1 mM
6) Binding Buffer; HEPES 20 mM (pH 7.4), NaCl 100 mM, MgCl2 5 mM, GDP 1 μM, BSA 0.1% (w/v), DMSO 2.5% (v/v),
7) Washing solution: NaH2PO4 10 mM (pH 7.4)
The test compounds were dissolved in DMSO and prepared as a concentration of 20 mM.
The concentrations of the compounds were detected ranging from 0.3 nM to 20 μM.
Control group: […] SIP and SEW2871 were used as positive control and were purchased from Tocris company, and the binding buffet was as negative control.
Test method: wetting membranes by saponin solution, and preparing [^35S]-GTPγS in binding solution (4×). The test compound was prepared as 4× of the final concentration which was then performed serial 3× dilution in 100% DMSO. Membranes with high-expressed S1P1 were collected in 5 ml binding buffer, and 50 μL was added to 96-well (containing 5 μg membrane protein with high-expressed S1P1). 25 μL, test compound was added in each well. The compound was incubated with the membranes for 30 min at room temperature, then 25 μL [^35S]-GTPγS was added, and the experiment was initiated. The 96-well detection plate was incubated for 1 hour at room temperature, filtered by filtermat B, and washed with washing solution for three times. After the plate was dried for 1 h at 50° C., 8 ml scintillator solution was added and counted using scintillation counter.
Result Analysis and Determination of 50% Inhibitory Concentration (IC50):
The IC50 value was calculated by using (Prism 4) software, and 50% inhibitory concentrations were obtained.

S1P1 [2] = molecular target: T1, S1P1; assay: S1P1 β-arrestin assay (PathHunter CHO-K1 EDG1); type: cell-based; details: CHO-EDG-1 cells
Experimental: 2.1 Experimental Materials: Path hunter express CHO-K1 EDG1 β-arrestin GPCR Assay was purchased from DiscoveRx, containing CHO-EDG-1 cells, buffers, substrate-1, substrate-2, cell culture fluid, 96-well cell culture plate.
1) The test compounds were dissolved in DMSO and prepared as a concentration of 20 mM.
2) The concentrations of the test compounds were detected ranging from […] to 20 μM.
4) Assay procedures: OCC culture solution was preheated in water tank at 37° C. Cells were taken out from liquor nitrogen tank, left on the dry-ice, and dissolved in water tank at 37° C. 0.5 ml OCC culture solution was added and blended slowly. The cells were diluted in 11.5 mL OCC culture solution, and 100 μL cell suspension (containing 8333 cells) was added to each well of the 96-well plate. The 96-well plate was incubated for 8 hours under 5% CO2 at 37° C., and 10 μL test compound dissolved in DMSO was added in; 10 μL DMSO was used as negative control. After the plate was incubated for 90 min at 37° C., 55 μL detection solution was added to each well. Then the results were read out by EnVision after the cell plate was incubated for 90 min at room temperature.
The EC50 Value was Calculated by Using Prism 4 Software

T1 sequence (P21453 whole entry): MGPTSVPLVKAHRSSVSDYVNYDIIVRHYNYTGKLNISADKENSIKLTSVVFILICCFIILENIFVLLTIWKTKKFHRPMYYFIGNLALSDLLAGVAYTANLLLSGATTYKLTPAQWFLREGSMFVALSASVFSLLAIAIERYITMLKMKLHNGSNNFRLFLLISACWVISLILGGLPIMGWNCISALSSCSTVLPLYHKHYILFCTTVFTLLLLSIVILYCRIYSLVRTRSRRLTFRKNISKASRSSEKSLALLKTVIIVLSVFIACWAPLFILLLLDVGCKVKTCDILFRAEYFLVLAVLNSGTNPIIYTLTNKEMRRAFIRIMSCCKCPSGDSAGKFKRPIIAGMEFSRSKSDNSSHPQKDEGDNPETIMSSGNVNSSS

COCCOc1ccc(-c2nnc(-c3ccc4c(c3)CC(N)(CO)CC4)o2)cc1 (stereo not shown) [Example 10, 7-{5-[4-(2-methoxyethoxy)phenyl]-2-[1,3,4]oxdiazolyl]-2-amino-1,2,3,4-tetrahydro-naphthalen-2-yl-methanol] was tested, and the IC50 (S1P1 [1]) was 31.7 nM and the EC50 (S1P1 [2]) was 77 nM.

CC(C)Oc1ccc(-c2nnc(-c3ccc4c(c3)CC(N)(CO)CC4)o2)cc1C(F)(F)F (stereo not shown) [Example 11, 7-[5-(3-trifluoromethyl-4-isopropoxyphenyl)-2-[1,3,4]oxdiazolyl]-2-amino-1,2,3,4-tetrahydronaphthalen-2-yl-methanol] showed an IC50 (S1P1 [1]) of 0.4 nM and an EC50 (S1P1 [2]) of 3.1 nM.

COc1ccc(-c2nnc(-c3ccc4c(c3)CC(N)(CO)CC4)o2)cc1C (stereo not shown) [Example 15, 7-[5-(4-methoxy-3-methylphenyl)-2-1,3,4-oxdiazolyl]-2-amino-1,2,3,4-tetrahydro-naphthalen-2-yl-methanol] was tested, and the IC50 (S1P1 [1]) was 16 nM and the EC50 (S1P1 [2]) was 27 nM.

CC(C)Oc1ccc(-c2nnc(-c3ccc4c(c3)CC(N)(CO)CC4)o2)cc1 (stereo not shown) [Example 16, 7-[5-(4-isopropoxyphenyl)-2-1,3,4-oxdiazolyl]-2-amino-1,2,3,4-tetrahydro-naphthalen-2-yl-methanol] was tested, and the IC50 (S1P1 [1]) was 46 nM.

With COCCOc1ccc(-c2nnc(-c3ccc4c(c3)CC(N)(CO)CC4)o2)cc1C(F)(F)F (stereo not shown) [Example 17, 7-{5-[4-(2-methoxyethoxy)-3-trifluoromethylphenyl]-2-1,3,4-oxdiazolyl}-2-amino-1,2,3,4-tetrahydro-naphthalen-2-yl-methanol] the IC50 (S1P1 [1]) was 10.2 nM.

For COCCOc1ccc(-c2nnc(-c3ccc4c(c3)CC(N)(CO)CC4)o2)cc1C (stereo not shown) [Example 18, 7-{5-[4-(2-methoxyethoxy)-3-methylphenyl]-2-1,3,4-oxdiazolyl}-2-amino-1,2,3,4-tetrahydro-naphthalen-2-yl-methanol], the IC50 (S1P1 [1]) was 41.1 nM.

In the case of CC(C)Oc1ccc(-c2nnc(-c3ccc4c(c3)CC(N)(CO)CC4)o2)cn1 (stereo not shown) [Example 19, 7-[5-(6-isopropoxy-3-pyridyl)-2-[1,3,4]-oxdiazolyl]-2-amino-1,2,3,4-tetrahydronaphthalen-2-yl-methanol], the IC50 (S1P1 [1]) is reported as 61.2 nM.

For CCOc1ccc(-c2nnc(-c3ccc4c(c3)CC(N)(CO)CC4)o2)cc1OCC (stereo not shown) [Example 20, 7-[5-(3,4-diethoxyphenyl)-2-[1,3,4]-oxdiazolyl]-2-amino-1,2,3,4-tetrahydro-naphthalen-2-yl-methanol], the IC50 (S1P1 [1]) was 179 nM.

In the case of CCNC1(CO)CCc2ccc(-c3nnc(-c4ccc(OC(C)C)c(C)c4)o3)cc2C1 (stereo not shown) [Example 23, 7-[5-(3-methyl-4-isopropoxyphenyl)-2-1,3,4-oxdiazolyl]-2-ethylamino-1,2,3,4-tetrahydro-naphthalen-2-yl-methanol], the IC50 (S1P1 [1]) is reported as 37.6 nM.

Cc1cc(-c2nnc(-c3ccc4c(c3)CC(CO)(N(C)C)CC4)o2)ccc1OC(C)C (stereo not shown) [Example 24, 7-[5-(3-methyl-4-isopropoxyphenyl)-2-1,3,4-oxdiazolyl]-2-dimethylamino-1,2,3,4-tetrahydro-naphthalen-2-yl-methanol] gave an IC50 (S1P1 [1]) of 46 nM and an EC50 (S1P1 [2]) of 354 nM.

CC(=O)NC1(CO)CCc2ccc(-c3nnc(-c4ccc(OC(C)C)c(C)c4)o3)cc2C1 (stereo not shown) [Example 25, N-{2-hydroxymethyl-7-[5-(3-methyl-4-isopropoxyphenyl)-2-1,3,4-oxdiazolyl]-1,2,3,4-tetrahydro-naphthalen-2-yl}acetamide] was tested, and the IC50 (S1P1 [1]) was 45.5 nM.

Cc1cc(-c2nnc(-c3ccc4c(c3)CC(CO)(NS(C)(=O)=O)CC4)o2)ccc1OC(C)C (stereo not shown) [Example 26, N-{2-hydroxymethyl-7-[5-(3-methyl-4-isopropoxyphenyl)-2-1,3,4-oxdiazolyl]-1,2,3,4-tetrahydro-naphthalen-2-yl}methanesulfonamide] showed an IC50 (S1P1 [1]) of 86 nM.

In the case of Cc1cc(-c2noc(-c3ccc4c(c3)CC(N)(CO)CC4)n2)ccc1OC(C)C (stereo not shown) [Example 27, 7-[3-(3-methyl-4-isopropoxyphenyl)-5-1,2,4-oxdiazolyl]-2-amino-1,2,3,4-tetrahydro-naphthalen-2-yl-methanol], the IC50 (S1P1 [1]) is reported as 1.2 nM and the EC50 (S1P1 [2]) is reported as 20 nM.

Cc1cc(-c2noc(-c3ccc4c(c3)CCC(N)(CO)C4)n2)ccc1OC(C)C (stereo not shown) [Example 28, 6-[3-(3-methyl-4-isopropoxyphenyl)-5-1,2,4-oxdiazolyl]-2-amino-1,2,3,4-tetrahydro-naphthalen-2-yl-methanol] gave an IC50 (S1P1 [1]) of 473 nM.

Compound Cc1cc(-c2nc(-c3ccc4c(c3)CC(N)(CO)CC4)no2)ccc1OC(C)C (stereo not shown) [Example 29, 7-[5-(3-methyl-4-isopropoxyphenyl)-3-1,2,4-oxdiazolyl]-2-amino-1,2,3,4-tetrahydro-naphthalen-2-yl-methanol] has an IC50 (S1P1 [1]) of 0.4 nM and an EC50 (S1P1 [2]) of 9.9 nM.

Compound Cc1cc(-c2nc(-c3ccc4c(c3)CCC(N)(CO)C4)no2)ccc1OC(C)C (stereo not shown) [Example 30, 6-[5-(3-methyl-4-isopropoxyphenyl)-3-1,2,4-oxdiazolyl]-2-amino-1,2,3,4-tetrahydro-naphthalen-2-yl-methanol] has an IC50 (S1P1 [1]) of 749 nM.

Work on Cc1cc(-c2cn(-c3ccc4c(c3)CC(N)(CO)CC4)nn2)ccc1OC(C)C (stereo not shown) [Example 31, 7-[4-(3-methyl-4-isopropoxyphenyl)-1-1,2,3-triazolyl]-2-amino-1,2,3,4-tetrahydro-naphthalen-2-yl-methanol] yielded an IC50 (S1P1 [1]) of 5 nM and an EC50 (S1P1 [2]) of 14.3 nM.

Work on Cc1cc(-c2cn(-c3ccc4c(c3)CCC(N)(CO)C4)nn2)ccc1OC(C)C (stereo not shown) [Example 32, 6-[4-(3-methyl-4-isopropoxyphenyl)-1-1,2,3-triazolyl]-2-amino-1,2,3,4-tetrahydro-naphthalen-2-yl-methanol] yielded an IC50 (S1P1 [1]) of 125 nM.
